A short description of test [1]: Affinity coelectrophoresis (ACE) of peptide binding to radiolabeled low Mr heparin. The arrangement: species or system pig. Particulars: for Kd: pH 7.0, mean and standard deviation of four assays, read-out: Kd (nM), affinity for low molecular weight heparin. The text has this:
Preparation of Radiolabeled Heparin. Whole heparin from pig intestinal mucosa (Sigma) was tyramine end-labeled and radiolabeled with Na^125I (Amersham, Pharmacia Biotech, Inc., Piscataway, N.J.) to an average specific activity≅1.0×10^7 CPM/μg as described (San Antonio, J. D., et al., Biochemistry, 32:4746-4755, 1993). Radiolabeled heparin was fractionated on Sephadex G-100 (Bio-Rad Laboratories, Hercules, Calif.) and the final≅12% of material to elute was retained as the low Mr material of ≦6,000 (Jordan, R., D. Beeler, and R. Rosenberg, J. Biol. Chem., 254:2902-2913, 1979; Laurent, T. C., et al., Biochem. J., 175:691-701, 1978).
Analysis of Peptide-Heparin Interactions by Affinity Coelectrophoresis (ACE). ACE was used to study interactions between peptides and low molecular weight (low Mr) heparin (WO00/45831). In ACE, trace concentrations of radiolabeled heparin are electrophoresed through agarose lanes containing peptides at various concentrations. These analyses are used to determine the dissociation constants (Kd's). The electrophoretic patterns of radiolabeled heparin are then visualized using a phosphorimager, and the dissociation constant (Kd) corresponds to the protein concentration at which the heparin is half shifted from being fully mobile at very low protein concentrations to maximally retarded at saturating protein concentrations. The lower the Kd value, the higher the affinity.
Binding of radiolabeled heparin to peptides was studied by ACE as detailed elsewhere (San Antonio, J. D., et al., Biochemistry, 32:4746-4755, 1993). […] Briefly, peptides were dissolved in 1×ACE running buffer, 50 mM sodium 3-(N-morpholino)-2-hydroxypropanesulfonate (MOPSO, Sigma)/125 mM sodium acetate, pH 7.0, and serially diluted in running buffer at 2× concentrations. Peptides were then mixed 1:1 with 2% agarose/1% CHAPS, 3-[(3-cholamidopropyl)dimethylammonio]-1-propanesulfonate, (Boehringer Mannheim, Indianapolis, Ind.), and loaded into wells of a 1% agarose gel. Radiolabeled heparin was then loaded in a slot on the anode side of the gel, and electrophoresed through the peptide-containing wells, towards the cathode. Gels were dried and PG mobility was measured with a Phosphorimager (Molecular Dynamics, Sunnyvale, Calif.) by scanning each protein lane and determining the relative radioactivity content per 88-μm pixel through the length of the lane. Retardation coefficient (R) measurements, binding isotherm curve fittings, and apparent Kd value determinations were calculated as detailed previously (Lee, M. K., and A. D. Lander, Proc. Natl. Acad. Sci. USA, 88:2768-2772, 1991; San Antonio, J. D., et al, Biochemistry, 32:4746-4755, 1993).
Retardation coefficients (R) for the migration of low Mr 1^25I-tyramine-heparin through peptides were determined from ACE gel electrophoretograms, and are plotted against peptide concentration. Smooth curves represent non-linear least-squares fits to the equation R=R∞/{1+(Kd/[peptide])^n}.

For test [2], the system named is anti-Factor Xa Activity of Unfractionated Heparin. The experiment in a line: Anti-Factor Xa assay: neutralization of unfractionated heparin in citrate or plasma in vitro. Conditions: for Unfractionated Heparin Neutralized: UFH 0.7 U/ml. It counts as biochemical, human. The method, then: The ability of peptides such as (ARKKAAKA)3VLVLVLVL (SEQ ID NO:5) to neutralize the anti-Factor Xa activity of UFH and LMWH in vitro was tested using the Stachrom Heparin kit (Diagnostica Stago), a standard hematology laboratory assay used to measure the anti-Factor Xa activity of heparin. The assay was performed using the low molecular weight heparin enoxaparin sodium (Lovenox®, Aventis Pharmaceuticals, Inc.), unfractionated heparin (UFH), or the non-heparin glycosaminoglycan danaparoid sodium (Orgaran®, Organon Inc., West Orange, N.J.) in 0.32% citrate or in plasma anticoagulated with 0.32% citrate. Enoxaparin is commonly used clinically as a low molecular weight heparin (LMWH). Danaparoid is commonly used clinically as a non-heparin glycosaminoglycan anticoagulant. Currently, the only FDA approved drug to target UFH is protamine, which is not effective in vivo against LMWH or a non-heparin glycosaminoglycan such as danaparoid. Buffer and ATIII are added to form the heparin/ATIII complex, peptide is added, then Factor Xa, reporter dye substrate for Factor Xa activity, and stop solution, and the dye concentration is read at 405 nm. The absorbance of the dye increases with increasing Factor Xa activity, and thus is inversely proportional to the heparin (anti-Factor Xa activity) concentration. Peptides were tested in plasma obtained from three volunteers (A, B, and C). Platelet function inhibitors PG12 and theophylline were added to the blood immediately upon collection. […]

The text below walks through data of patent publication US7259140B2, “Heparin-binding peptides and uses thereof” (Thomas Jefferson University, priority 2003, dated 2007).

Ends that are not written are not given here.

In general, Kd refers to the free concentration of one partner at which half of the binding sites on the other are occupied at equilibrium, for simple one-to-one binding. “ARKKAAKAARKKAAKAARKKAAKAARKKAAKA [(ARKKAAKA)4]”: the “affinity for low molecular weight heparin” value in test [1] is “high heparin affinity”. In test [1], the Kd is 55 ± 32 nM. The “Unfractionated Heparin Neutralized” value in test [2] (1 μg/ml Peptide, A Plasma) came out at 0.069 ± 0.023 U/ml; in test [2] (1 μg/ml Peptide, B Plasma), 0.124 ± 0.047 U/ml; in test [2] (1 μg/ml Peptide, C Plasma) it was 0.076 ± 0.014 U/ml; in test [2] (1 μg/ml Peptide, Citrate), 0.056 ± 0.019 U/ml; in test [2] (6 μg/ml Peptide, A Plasma), 0.334 ± 0.016 U/ml; in test [2] (6 μg/ml Peptide, B Plasma), 0.361 ± 0.038 U/ml. Further, the “Unfractionated Heparin Neutralized” value worked out at 0.397 ± 0.004 U/ml in test [2] (6 μg/ml Peptide, C Plasma); 0.423 ± 0.014 U/ml in test [2] (6 μg/ml Peptide, Citrate); 0.412 ± 0.010 U/ml in test [2] (12 μg/ml Peptide, A Plasma); 0.395 ± 0.012 U/ml in test [2] (12 μg/ml Peptide, B Plasma); 0.396 ± 0.018 U/ml in test [2] (12 μg/ml Peptide, C Plasma); 0.370 ± 0.020 U/ml in test [2] (12 μg/ml Peptide, Citrate). In addition, the “Unfractionated Heparin Neutralized” value amounted to 0.389 ± 0.018 U/ml in test [2] (60 μg/ml Peptide, A Plasma); 0.442 ± 0.056 U/ml in test [2] (60 μg/ml Peptide, B Plasma); 0.401 ± 0.012 U/ml in test [2] (60 μg/ml Peptide, C Plasma); 0.378 ± 0.023 U/ml in test [2] (60 μg/ml Peptide, Citrate); 0.364 ± 0.032 U/ml in test [2] (120 μg/ml Peptide, A Plasma); 0.392 ± 0.075 U/ml in test [2] (120 μg/ml Peptide, B Plasma). For the same substance, the “Unfractionated Heparin Neutralized” value in test [2] (120 μg/ml Peptide, C Plasma) is recorded as 0.374 ± 0.020 U/ml; in test [2] (120 μg/ml Peptide, Citrate), 0.361 ± 0.028 U/ml.
With “ARKKAAKAARKKAAKAARKKAAKAVLVLVL [(ARKKAAKA)3VLVLVL]”, the Kd in test [1] is 44 ± 17 nM. Besides, the “Unfractionated Heparin Neutralized” value is recorded as 0.249 ± 0.129 U/ml in test [2] (1 μg/ml Peptide, A Plasma); 0.142 ± 0.040 U/ml in test [2] (1 μg/ml Peptide, B Plasma); 0.114 ± 0.056 U/ml in test [2] (1 μg/ml Peptide, C Plasma); 0.150 ± 0.023 U/ml in test [2] (1 μg/ml Peptide, Citrate); 0.667 ± 0.019 U/ml in test [2] (6 μg/ml Peptide, A Plasma); 0.598 ± 0.016 U/ml in test [2] (6 μg/ml Peptide, B Plasma). Also, the “Unfractionated Heparin Neutralized” value in test [2] (6 μg/ml Peptide, C Plasma) was 0.572 ± 0.018 U/ml; in test [2] (6 μg/ml Peptide, Citrate), 0.576 ± 0.060 U/ml; in test [2] (12 μg/ml Peptide, A Plasma), 0.570 ± 0.119 U/ml; in test [2] (12 μg/ml Peptide, B Plasma), 0.585 ± 0.005 U/ml; in test [2] (12 μg/ml Peptide, C Plasma), 0.575 ± 0.013 U/ml; in test [2] (12 μg/ml Peptide, Citrate), 0.595 ± 0.021 U/ml.
Regarding “ARKKAAKAARKKAAKAARKKAAKAVLVLVLVL [(ARKKAAKA)3VLVLVLVL]”, the Kd in test [1] was 57 ± 23 nM. Moreover, the “effectiveness in neutralizing UFH” value in test [2] is reported as “most effective peptide”. The “Unfractionated Heparin Neutralized” value stood at 0.258 ± 0.153 U/ml in test [2] (1 μg/ml Peptide, A Plasma); 0.247 ± 0.034 U/ml in test [2] (1 μg/ml Peptide, B Plasma); 0.116 ± 0.032 U/ml in test [2] (1 μg/ml Peptide, C Plasma); 0.072 ± 0.042 U/ml in test [2] (1 μg/ml Peptide, Citrate); 0.580 ± 0.067 U/ml in test [2] (6 μg/ml Peptide, A Plasma); 0.597 ± 0.046 U/ml in test [2] (6 μg/ml Peptide, B Plasma). The “Unfractionated Heparin Neutralized” value stood at 0.582 ± 0.035 U/ml in test [2] (6 μg/ml Peptide, C Plasma); 0.651 ± 0.084 U/ml in test [2] (6 μg/ml Peptide, Citrate); 0.562 ± 0.050 U/ml in test [2] (12 μg/ml Peptide, A Plasma); 0.586 ± 0.053 U/ml in test [2] (12 μg/ml Peptide, B Plasma); 0.554 ± 0.049 U/ml in test [2] (12 μg/ml Peptide, C Plasma); 0.505 ± 0.049 U/ml in test [2] (12 μg/ml Peptide, Citrate). Besides, the “Unfractionated Heparin Neutralized” value is 0.535 ± 0.054 U/ml in test [2] (60 μg/ml Peptide, A Plasma); 0.444 ± 0.019 U/ml in test [2] (60 μg/ml Peptide, B Plasma); 0.539 ± 0.010 U/ml in test [2] (60 μg/ml Peptide, C Plasma); 0.528 ± 0.039 U/ml in test [2] (60 μg/ml Peptide, Citrate); 0.490 ± 0.049 U/ml in test [2] (120 μg/ml Peptide, A Plasma); 0.279 ± 0.038 U/ml in test [2] (120 μg/ml Peptide, B Plasma). Also, the “Unfractionated Heparin Neutralized” value in test [2] (120 μg/ml Peptide, C Plasma) is listed as 0.460 ± 0.057 U/ml; in test [2] (120 μg/ml Peptide, Citrate) it was 0.510 ± 0.117 U/ml.
Regarding “VLVL(ARKKAAKA)3ARKKCAKA (VLVLARKKAAKAARKKAAKAARKKAAKAARKKCAKA; Fragment)”, the dissociation constant Kd in test [1] came to 48 ± 11 nM. In addition, the “Unfractionated Heparin Neutralized” value in test [2] (1 μg/ml Peptide, A Plasma) is listed as 0.240 ± 0.061 U/ml; in test [2] (1 μg/ml Peptide, B Plasma), 0.259 ± 0.063 U/ml; in test [2] (1 μg/ml Peptide, C Plasma), 0.233 ± 0.075 U/ml; in test [2] (1 μg/ml Peptide, Citrate), 0.262 ± 0.101 U/ml; in test [2] (6 μg/ml Peptide, A Plasma), 0.574 ± 0.014 U/ml; in test [2] (6 μg/ml Peptide, B Plasma), 0.550 ± 0.061 U/ml. In addition, the “Unfractionated Heparin Neutralized” value amounted to 0.559 ± 0.014 U/ml in test [2] (6 μg/ml Peptide, C Plasma); 0.597 ± 0.034 U/ml in test [2] (6 μg/ml Peptide, Citrate); 0.618 ± 0.014 U/ml in test [2] (12 μg/ml Peptide, A Plasma); 0.586 ± 0.001 U/ml in test [2] (12 μg/ml Peptide, B Plasma); 0.526 ± 0.031 U/ml in test [2] (12 μg/ml Peptide, C Plasma); 0.534 ± 0.056 U/ml in test [2] (12 μg/ml Peptide, Citrate).
